Assay results published in patent US5126356A, “Piperidine compounds” (Adir et Compagnie, priority 1989, dated 1992).
Where a name gives a salt, the structure may show the parent alone.

Legend:
human LDL's = assay: Oxidative modification of human LDL's by copper sulphate (MDA production); format: biochemical; conditions: for IC50: read-out: IC50 (reduction of MDA production by 50%), Cu2+ (copper sulphate 5×10^-6 M), 24 hours
Description: Human LDL's are incubated for 24 hours in the presence of copper sulphate (5×10^-6 M) and in the absence or in the presence of the test compounds (10^-7 M to 10^-4 M).
After incubation, the peroxidation of the LDL's is evaluated by agar gel electrophoresis and by the formation of one of the products of lipid peroxidation: malondialdehyde (MDA) (Parthasarathy S., Young S. G., Witztum J. L., Pittman R. C. and Steinberg D.; J. Clin. Invest. 77, 641-644, 1986).

Alpha adrenergic α2 = assay: Binding to neurotransmitter receptors: alpha2 adrenergic ([3H] Rauwolscine); conditions: α2, [3H] Rauwolscine; read-out: K0.5
type L calcium channels [1] = assay: Binding: displacement of [3H] D888 at the Ca2+ channel; conditions: read-out: K0.5 (50% of specifically fixed radioactivity displaced)
type L Ca^2+ channel = target: T1, type L Ca^2+ channel (Rattus norvegicus, UniProt P22002); assay: Inhibition of 45Ca2+ influx through the Ca2+ channel in A7 r5 cells; format: cell-based; conditions: 45Ca2+ influx, A7 r5 cells; read-out: K0.5 (50% of 45Ca2+ influx inhibited)
T1 construct: cell lines from the aorta of newly born rats; host or cells: A7 r5

cardiac cells [2] = assay: Oxidative necrosis of cardiac cells induced by hypoxanthine/xanthine oxidase (α-HBDH release); format: cell-based, rat; conditions: for activity at 10 µM / activity at 1 µM / activity at 0.1 µM / inhibition at 1 µM: Rattus norvegicus, Cardiomyocyte, 4 h; for activity at 10 µM / activity at 1 µM / activity at 0.1 µM / necrosis index: XO + HX, control XO + HX = 100, mean ±SD; for activity at 10 µM / activity at 1 µM / activity at 0.1 µM: read-out: necrosis index; for inhibition at 1 µM: from 10^-6 M, read-out: reduction of oxidative necrosis of the cardiomyocytes; for necrosis index: 240 min
Description: Cardiac cells of newly born rats are used between the 5th and 7th day following culturing. Oxidative necrosis is induced by the enzymatic production system of hypoxanthine free radicals (HX, 1 mM) and xanthine oxidase (XO, 10 mU/ml). The necrosis is evaluated 4 hours after the addition of XO/HX by measuring by spectrophotometry the cytosolic α-hydroxybutyrate dehydrogenase (α-HBDH) activity released into the supernatant liquor. Two reference molecules (Probucol, vitamin E) and two molecules representative of the present invention (corresponding to Examples 13 and 19) were tested. The cells are treated with the molecules 16 hours and 1 hour before the start of the experiment after renewal of the medium. At the start of the experiment, the treatment is repeated one last time.
The necrosis index 100 corresponds to the release of 46.7±5.3% of the cytosolic content of α-HBDH into the supernatant liquor in 4 hours.
The results are expressed as the mean ±SD (2<n≤4, 3 to 4 repetitions per experiment).

Beta adrenergic β = assay: Binding to neurotransmitter receptors: beta adrenergic ([3H] DHA); conditions: read-out: K0.5
type L calcium channels [3] = target: T2, type L calcium channels (Oryctolagus cuniculus, UniProt P07293); assay: Binding: displacement of [3H] PN 200-110 at the Ca2+ channel
T2 construct: microsomal fractions enriched with type L calcium channels; from tissue; host or cells: microsomal fractions

cardiac cells [4] = assay: Protection of cardiac cells from necrosis induced by intracellular acidosis (αHBDH release); format: cell-based, rat; conditions: Rattus norvegicus, Cardiomyocyte
Description: a) Cardiac cells: the cardiac cells are prepared from the hearts of newly born (3 days) Wistar rats in accordance with the technique of RENAUD JF., MEAUX JP., ROMEY G., SCHMID A., LAZDUNSKI M., Activation of the voltage-dependent Ca^2+ channels in rat heart cells by dihydropyridine derivative--Biochem. Biophys. Res. Commun., 125, 405-412 (1984).
The cardiomyocytes are isolated from the ventricles by enzymatic dissociation and cultured at 185,000 cells/cm^2. The cells are kept at 37° C. under an air/CO2 atmosphere (95 V/5 V) saturated with water. The cardiomyocytes are used between the 3rd and 8th day following culturing.
Intracellular acidosis is induced in accordance with the conditions published by RENAUD JF., Internal pH Na^+ and Ca^2+ regulation by trimetazidine during cardiac cell acidosis. Cardiovasc. Drugs and Ther., 1, 667-686 (1988) in the presence or absence of the products to be tested. Cellular necrosis is evaluated by measuring by spectrophotometry using the Boerhinger 124800 kit the kinetics of the release of a cytosolic enzyme α-hydroxybutyrate dehydrogenase (αHBDH) into the extracellular medium.
The signal measured corresponds to the amplitude of the necrosis induced by the acidosis. The values are the means ±SD. The number of experiments is indicated in parentheses.

[5] = read-out: amplitude of the necrosis induced by the acidosis

T1 sequence (P22002 whole entry): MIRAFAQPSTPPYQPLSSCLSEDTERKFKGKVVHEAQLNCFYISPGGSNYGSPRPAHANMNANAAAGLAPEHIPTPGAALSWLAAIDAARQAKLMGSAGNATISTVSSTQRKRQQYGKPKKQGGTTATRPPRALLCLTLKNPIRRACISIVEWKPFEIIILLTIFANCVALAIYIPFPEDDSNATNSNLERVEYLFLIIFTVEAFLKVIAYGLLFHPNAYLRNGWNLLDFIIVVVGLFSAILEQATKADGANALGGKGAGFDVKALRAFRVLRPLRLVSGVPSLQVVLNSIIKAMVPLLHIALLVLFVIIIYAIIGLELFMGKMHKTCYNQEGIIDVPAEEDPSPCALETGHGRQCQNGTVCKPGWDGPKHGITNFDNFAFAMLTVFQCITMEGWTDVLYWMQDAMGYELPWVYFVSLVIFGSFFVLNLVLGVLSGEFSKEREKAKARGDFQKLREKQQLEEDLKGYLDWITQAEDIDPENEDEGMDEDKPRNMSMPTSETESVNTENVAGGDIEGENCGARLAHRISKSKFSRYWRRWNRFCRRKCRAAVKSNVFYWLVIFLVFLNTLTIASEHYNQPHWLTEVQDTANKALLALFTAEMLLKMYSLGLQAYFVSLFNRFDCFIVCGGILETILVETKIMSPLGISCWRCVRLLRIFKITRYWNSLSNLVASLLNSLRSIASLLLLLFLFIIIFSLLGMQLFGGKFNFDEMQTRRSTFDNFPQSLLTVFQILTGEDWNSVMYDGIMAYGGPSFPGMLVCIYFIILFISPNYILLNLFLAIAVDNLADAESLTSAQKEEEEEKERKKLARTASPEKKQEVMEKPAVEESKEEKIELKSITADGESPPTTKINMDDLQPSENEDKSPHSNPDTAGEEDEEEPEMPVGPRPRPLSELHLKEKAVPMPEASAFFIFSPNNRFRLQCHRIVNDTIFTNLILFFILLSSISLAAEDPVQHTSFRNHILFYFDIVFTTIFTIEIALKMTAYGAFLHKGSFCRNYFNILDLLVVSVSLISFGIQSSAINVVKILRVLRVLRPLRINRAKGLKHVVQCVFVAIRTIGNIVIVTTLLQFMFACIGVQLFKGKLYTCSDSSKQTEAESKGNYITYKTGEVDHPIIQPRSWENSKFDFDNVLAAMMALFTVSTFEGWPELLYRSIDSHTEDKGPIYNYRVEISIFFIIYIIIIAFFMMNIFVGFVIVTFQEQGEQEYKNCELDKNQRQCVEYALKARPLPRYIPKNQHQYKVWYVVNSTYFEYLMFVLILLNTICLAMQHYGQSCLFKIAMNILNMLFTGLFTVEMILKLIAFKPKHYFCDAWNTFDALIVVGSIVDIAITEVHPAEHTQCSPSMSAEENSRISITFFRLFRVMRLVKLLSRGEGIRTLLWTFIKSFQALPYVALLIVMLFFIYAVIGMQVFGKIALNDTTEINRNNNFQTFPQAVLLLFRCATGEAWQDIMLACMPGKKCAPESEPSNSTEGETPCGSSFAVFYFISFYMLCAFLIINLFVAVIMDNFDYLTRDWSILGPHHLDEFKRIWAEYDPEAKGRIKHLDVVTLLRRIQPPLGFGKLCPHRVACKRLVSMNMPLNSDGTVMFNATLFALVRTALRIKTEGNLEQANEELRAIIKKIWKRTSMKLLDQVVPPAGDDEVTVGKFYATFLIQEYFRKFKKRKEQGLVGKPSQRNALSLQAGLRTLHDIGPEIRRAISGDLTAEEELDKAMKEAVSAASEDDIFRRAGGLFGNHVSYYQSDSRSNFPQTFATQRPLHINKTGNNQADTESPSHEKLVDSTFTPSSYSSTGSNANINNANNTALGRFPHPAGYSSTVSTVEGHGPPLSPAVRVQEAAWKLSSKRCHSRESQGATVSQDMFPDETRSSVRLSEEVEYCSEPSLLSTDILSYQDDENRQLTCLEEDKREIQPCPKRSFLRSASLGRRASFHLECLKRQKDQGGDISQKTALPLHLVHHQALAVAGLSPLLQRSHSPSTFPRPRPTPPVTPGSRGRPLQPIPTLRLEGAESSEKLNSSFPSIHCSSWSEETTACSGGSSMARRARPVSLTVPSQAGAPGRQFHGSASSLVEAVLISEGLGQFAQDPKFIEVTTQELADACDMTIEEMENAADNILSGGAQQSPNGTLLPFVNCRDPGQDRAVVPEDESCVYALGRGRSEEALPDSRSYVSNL
T1 sequence (P54290 25-945 partner limits assumed): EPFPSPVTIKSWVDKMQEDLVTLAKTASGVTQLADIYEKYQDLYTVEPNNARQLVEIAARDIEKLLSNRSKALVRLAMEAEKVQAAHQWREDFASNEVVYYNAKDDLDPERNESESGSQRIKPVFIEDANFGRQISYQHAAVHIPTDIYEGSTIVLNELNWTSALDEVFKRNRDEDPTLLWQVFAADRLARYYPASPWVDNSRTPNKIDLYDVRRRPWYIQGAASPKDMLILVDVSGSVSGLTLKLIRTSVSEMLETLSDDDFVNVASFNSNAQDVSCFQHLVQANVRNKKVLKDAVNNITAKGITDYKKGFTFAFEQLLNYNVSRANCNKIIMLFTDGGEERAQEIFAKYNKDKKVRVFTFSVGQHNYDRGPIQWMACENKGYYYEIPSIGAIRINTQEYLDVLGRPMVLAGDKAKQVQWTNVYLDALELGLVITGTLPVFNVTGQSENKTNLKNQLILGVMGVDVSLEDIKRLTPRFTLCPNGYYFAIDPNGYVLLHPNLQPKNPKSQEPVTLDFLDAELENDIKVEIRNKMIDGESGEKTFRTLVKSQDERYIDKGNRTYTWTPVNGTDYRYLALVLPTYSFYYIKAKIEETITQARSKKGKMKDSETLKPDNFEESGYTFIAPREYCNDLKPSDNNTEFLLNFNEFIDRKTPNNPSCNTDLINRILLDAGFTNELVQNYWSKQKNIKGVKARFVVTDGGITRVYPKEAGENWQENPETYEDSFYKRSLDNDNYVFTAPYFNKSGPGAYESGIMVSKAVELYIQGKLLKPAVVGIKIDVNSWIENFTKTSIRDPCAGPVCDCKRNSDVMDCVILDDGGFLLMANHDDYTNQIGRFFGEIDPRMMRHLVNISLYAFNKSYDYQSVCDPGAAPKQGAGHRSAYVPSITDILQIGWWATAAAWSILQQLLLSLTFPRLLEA
T1 sequence (P54290 946-1091 partner limits assumed): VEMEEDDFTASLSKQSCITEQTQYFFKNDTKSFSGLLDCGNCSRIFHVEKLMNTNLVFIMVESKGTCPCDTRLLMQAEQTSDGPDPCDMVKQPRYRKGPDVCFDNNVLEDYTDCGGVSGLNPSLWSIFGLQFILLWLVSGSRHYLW

`COc1ccc(CSC2CCN(CCCOc3cc(C(C)(C)C)c(O)c(C(C)(C)C)c3)CC2)c(OC)c1OC` [Example 14, 4-(2,3,4-trimethoxybenzylthio)-1-[3-(3,5-di-tert.-butyl-4-hydroxyphenoxy)propyl]piperidine] showed an IC50 (human LDL's) of 1000 nM.

`COc1ccc(CSC2CCN(CCCSc3cc(C(C)(C)C)c(O)c(C(C)(C)C)c3)CC2)c(OC)c1OC` [Example 18, 4-(2,3,4-trimethoxybenzylthio)-1-[3-(3,5-di-tert.butyl-4-hydroxyphenylthio)propyl]piperidine] gave an IC50 (human LDL's) of 2000 nM.

For `COC(=O)[C@@H]1[C@H]2C[C@H]3c4[nH]c5ccccc5c4CCN3C[C@@H]2CC[C@@H]1O` [Yohimbine, reference compound], the IC50 (Alpha adrenergic α2) was 31 nM.

Molecule `COc1ccc(CSC2CCN(CCCCCSc3cc(C(C)(C)C)c(O)c(C(C)(C)C)c3)CC2)c(OC)c1OC` [Example 20, 4-(2,3,4-trimethoxybenzylthio)-1-[5-(3,5-di-tert.butyl-4-hydroxyphenylthio)pentyl]piperidine] has an IC50 (human LDL's) of 1000 nM.

With `COc1cccc(CCN(C)CCCC(C#N)(c2ccc(OC)c(OC)c2)C(C)C)c1` (centres unmarked) [Example D888, reference compound] the IC50 (type L calcium channels [1]) was 2.5 nM and the IC50 (type L Ca^2+ channel) was 23 nM.

`COc1ccc(CSC2CCN(CCCCCOc3cc(C(C)(C)C)c(O)c(C(C)(C)C)c3)CC2)c(OC)c1OC` [Example 21, 4-(2,3,4-trimethoxybenzylthio)-1-[5-(3,5-di-tert.-butyl-4-hydroxyphenoxy)pentyl]piperidine] was tested, and the IC50 (human LDL's) was 800 nM.

Work on `CC(C)(Sc1cc(C(C)(C)C)c(O)c(C(C)(C)C)c1)Sc1cc(C(C)(C)C)c(O)c(C(C)(C)C)c1` [Probucol, reference compound] yielded an IC50 (human LDL's) of 3000 nM, an activity at 10 µM (cardiac cells [2]; 10^-5 M) of 68 ± 0.9% and an activity at 1 µM (cardiac cells [2]; 10^-6 M) of 95 ± 1.7%.

In the case of `COc1ccc(CSC2CCN(Cc3cc(C(C)(C)C)c(O)c(C(C)(C)C)c3)CC2)c(OC)c1OC` [Example 13, 4-(2,3,4-trimethoxybenzylthio)-1-(3,5-di-tert.-butyl-4-hydroxybenzyl)piperidine], the IC50 (human LDL's) is reported as 3000 nM, the “protection of cardiac cells with respect to oxidative necrosis (in words)” value (cardiac cells [2]) is reported as “markedly superior to the anti-oxidant reference products” and the activity at 10 µM (cardiac cells [2]; 10^-5 M) is reported as 16.1 ± 5.6%. The activity at 1 µM (cardiac cells [2]; 10^-6 M) was 52.4 ± 18.2%, the activity at 0.1 µM (cardiac cells [2]; 10^-7 M) was 75.7 ± 19.7% and the inhibition at 1 µM (cardiac cells [2]) was at least 50%.

For `COc1ccc(CSC2CCN(CCCOc3cc(C)c(O)c(C)c3C)CC2)c(OC)c1OC` [Example 19, 4-(2,3,4-trimethoxybenzylthio)-1-[3-(2,3,5-trimethyl-4-hydroxyphenoxy)propyl]piperidine], the “protection of human LDL's with respect to oxidative modification (in words)” value (human LDL's; copper sulphate) was “greater ability”, the IC50 (human LDL's) was 300 nM and the “protection of cardiac cells with respect to oxidative necrosis (in words)” value (cardiac cells [2]) was “markedly superior to the anti-oxidant reference products”. It also gave an activity at 10 µM (cardiac cells [2]; 10^-5 M) of 7.9 ± 4.1%, an activity at 1 µM (cardiac cells [2]; 10^-6 M) of 38.4 ± 13.7% and an activity at 0.1 µM (cardiac cells [2]; 10^-7 M) of 86 ± 11.5%. For the same molecule, the inhibition at 1 µM (cardiac cells [2]) was at least 50%.

`C=CCc1ccccc1OCC(O)CNC(C)C` (centres unmarked) [Alprenolol] gave an IC50 (Beta adrenergic β) of 2.1 nM.

`COc1ccc(CN2CCNCC2)c(OC)c1OC` [Trimetazidine, 2 HCl, trimetazidine dihydrochloride, reference compound] showed an IC50 (type L calcium channels [3]) of over 100000 nM, an IC50 (type L calcium channels [1]) of over 100000 nM and an IC50 (Beta adrenergic β) of over 100000 nM. It also gave an activity at 20 µM (cardiac cells [4]; [5]) of 94.6%, an activity at 100 µM (cardiac cells [4]; [5]) of 75.8% and an activity at 500 µM (cardiac cells [4]; [5]) of 58.3%. The inhibition at 500 µM (cardiac cells [4]; read-out: protection of cell population subjected to intracellular acidosis) was 42%.

For `COc1ccc(CSC2CCN(CC(O)COc3cc(C(C)(C)C)c(O)c(C(C)(C)C)c3)CC2)c(OC)c1OC` (centres unmarked) [Example 17, 4-(2,3,4-trimethoxybenzylthio)-1-[3-(3,5-di-tert.-butyl-4-hydroxyphenoxy)-2-hydroxypropyl]piperidine], the IC50 (human LDL's) was 2000 nM.

With `COc1ccc(CSC2CCN(CC(O)CSc3cc(C(C)(C)C)c(O)c(C(C)(C)C)c3)CC2)c(OC)c1OC` (centres unmarked) [Example 16, 4-(2,3,4-trimethoxybenzylthio)-1-[3-(3,5-di-tert.-butyl-4-hydroxyphenylthio)-2-hydroxypropyl]piperidine] the IC50 (human LDL's) was 3000 nM.

With vitamin E [reference compound] the IC50 (human LDL's) was over 100000 nM, the necrosis index (cardiac cells [2]; 10^-5 M, 10 µM) was 54.9 ± 11.3 and the necrosis index (cardiac cells [2]; 10^-6 M, 1 µM) was 87.6 ± 5.7. For the same molecule, the necrosis index (cardiac cells [2]; 10^-7 M, 0.1 µM) was 97.1 ± 2.6.

In the case of `COc1ccc(CSC2CCN(CCCc3cc(C(C)(C)C)c(O)c(C(C)(C)C)c3)CC2)c(OC)c1OC` [Example 15, 4-(2,3,4-trimethoxybenzylthio)-1-[3-(3,5-di-tert.-butyl-4-hydroxyphenyl)propyl]piperidine], the IC50 (human LDL's) is reported as 3000 nM.
